# Source: ChEMBL document CHEMBL1221184, “Identifying off-target effects and hidden phenotypes of drugs in human cells” (Nat Chem Biol, 2006)
# Calls of active or inactive are those of the source. The calls are words filed in the database; no cut-off is given here.
# Test system: PC-3
# Assay: Antiproliferative activity against human PC3 cells at 1 uM after 120 hrs by MTT assay relative to DMSO
# Type: functional
row,SMILES,fold change (FC)
1,Ic1cccc(CSc2nnc(-c3ccncc3)o2)c1,1.095
2,CCCc1nc(C)c2c(=O)nc(-c3cc(S(=O)(=O)N4CCN(CC)CC4)ccc3OCC)[nH]n12,1.058
3,CCCc1nn(C)c2c(=O)[nH]c(-c3cc(S(=O)(=O)N4CCN(C)CC4)ccc3OCC)nc12,1.037
4,CN1CC(=O)N2[C@H](c3ccc4c(c3)OCO4)c3[nH]c4ccccc4c3C[C@@H]2C1=O,1.052
5,CNc1cc2c(Nc3cccc(Br)c3)ncnc2cn1,1.022

# Molecular target: Cyclin-dependent kinase 1 (Homo sapiens) (UniProt P06493)
# Sequence (P06493 whole entry, looked up, the tested form may be a part): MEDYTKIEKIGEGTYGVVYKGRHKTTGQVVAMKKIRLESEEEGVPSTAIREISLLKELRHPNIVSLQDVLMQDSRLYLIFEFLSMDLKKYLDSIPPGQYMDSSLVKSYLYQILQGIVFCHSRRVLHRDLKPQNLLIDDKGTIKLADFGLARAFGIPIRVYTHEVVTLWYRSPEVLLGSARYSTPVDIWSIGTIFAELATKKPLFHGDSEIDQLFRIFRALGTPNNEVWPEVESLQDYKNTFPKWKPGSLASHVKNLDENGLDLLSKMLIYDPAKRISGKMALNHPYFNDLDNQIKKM
# Assay: Effect on Cdc2 expressed in HEK293 cells assessed as effect on Cdc2:Cdc25C interaction complexes in presence of camptothecin by EYFP and/or YFP Venus fragment based reporter gene assay
# Type: cell-based
row,SMILES,Activity
1,Clc1ccccc1C(c1ccccc1)(c1ccccc1)n1ccnc1 [CLOTRIMAZOLE],Active
2,O=C1C=C2C(=CCOC2O)O1 (centres undefined) [PATULIN],Active
3,C(=C\c1ccccc1)/CN1CCN(C(c2ccccc2)c2ccccc2)CC1,Active
4,Cc1ccc(S(=O)(=O)/C=C/C#N)cc1,Active

# Molecular target: Cofilin-1 (Homo sapiens) (UniProt P23528)
# Sequence (P23528 whole entry, the tested form may be a part): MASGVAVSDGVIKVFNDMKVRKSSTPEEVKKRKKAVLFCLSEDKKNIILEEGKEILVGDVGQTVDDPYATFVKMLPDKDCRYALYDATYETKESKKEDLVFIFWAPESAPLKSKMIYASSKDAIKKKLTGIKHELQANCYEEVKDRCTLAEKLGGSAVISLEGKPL
# Assay: Effect on cofilin1 expressed in HEK293 cells assessed as effect on cofilin1; Limk2 interaction complexes in presence of camptothecin by EYFP and/or YFP Venus fragment based reporter gene assay
# Type: cell-based
row,SMILES,Activity
1,Clc1ccccc1C(c1ccccc1)(c1ccccc1)n1ccnc1 [CLOTRIMAZOLE],Active
2,O=C1C=C2C(=CCOC2O)O1 (centres undefined) [PATULIN],Active
3,C(=C\c1ccccc1)/CN1CCN(C(c2ccccc2)c2ccccc2)CC1,Active

# Test system: PC-3
# Assay: Antiproliferative activity against human PC3 cells at 25 uM after 120 hrs by MTT assay relative to DMSO
# Type: functional
row,SMILES,fold change (FC)
1,C[C@@H](N)[C@H]1CC[C@H](C(=O)Nc2ccncc2)CC1 [Y-27632],0.958
2,C[S+]([O-])c1ccc(-c2nc(-c3ccc(F)cc3)c(-c3ccncc3)[nH]2)cc1 (centres undefined) [SB-203580],0.721
3,O=c1cc(N2CCOCC2)oc2c(-c3ccccc3)cccc12 [LY-294002],0.33
4,COc1ccc(C2CNC(=O)C2)cc1OC1CCCC1 (centres undefined) [ROLIPRAM],1.065

# Test system: PC-3
# Assay: Antiproliferative activity against human PC3 cells at 10 uM after 120 hrs by MTT assay relative to DMSO
# Type: functional
row,SMILES,fold change (FC)
1,Clc1ccccc1C(c1ccccc1)(c1ccccc1)n1ccnc1 [CLOTRIMAZOLE],0.708
2,O=C1C=C2C(=CCOC2O)O1 (centres undefined) [PATULIN],0.23
3,CC[C@H](C)[C@@H](CO[C@@H](Cc1ccccc1)C(=O)N[C@@H](CCS(C)(=O)=O)C(=O)OC(C)C)NC[C@@H](N)CS,0.719
4,Cc1ccc(NC(=O)c2ccc(CN3CCN(C)CC3)cc2)cc1Nc1nccc(-c2cccnc2)n1 [IMATINIB],0.5
5,Cc1ccc(-c2cc(C(F)(F)F)nn2-c2ccc(S(N)(=O)=O)cc2)cc1 [CELECOXIB],0.902
6,CS(=O)(=O)c1ccc(C2=C(c3ccccc3)C(=O)OC2)cc1 [ROFECOXIB],1.08
7,c1ccc([C@H]2CN3CCSC3=N2)cc1 [LEVAMISOLE],1.028
8,CCCCCCCCCCCCC/C=C/[C@H](O)[C@@H](CO)NC(C)=O [ACETYL CERAMIDE],0.787
9,CC(C)(C)c1ccc(C(O)CCCN2CCC(C(O)(c3ccccc3)c3ccccc3)CC2)cc1 (centres undefined) [TERFENADINE],0.212
10,Cc1onc(-c2ccccc2)c1-c1ccc(S(N)(=O)=O)cc1 [VALDECOXIB],1.048
11,Cc1ccc(S(=O)(=O)/C=C/C#N)cc1,0.231
12,Fc1ccc([C@@H]2CCNC[C@H]2COc2ccc3c(c2)OCO3)cc1 [PAROXETINE],0.328

# Molecular target: Transcription factor Jun (Homo sapiens) (UniProt P05412)
# Sequence (P05412 whole entry): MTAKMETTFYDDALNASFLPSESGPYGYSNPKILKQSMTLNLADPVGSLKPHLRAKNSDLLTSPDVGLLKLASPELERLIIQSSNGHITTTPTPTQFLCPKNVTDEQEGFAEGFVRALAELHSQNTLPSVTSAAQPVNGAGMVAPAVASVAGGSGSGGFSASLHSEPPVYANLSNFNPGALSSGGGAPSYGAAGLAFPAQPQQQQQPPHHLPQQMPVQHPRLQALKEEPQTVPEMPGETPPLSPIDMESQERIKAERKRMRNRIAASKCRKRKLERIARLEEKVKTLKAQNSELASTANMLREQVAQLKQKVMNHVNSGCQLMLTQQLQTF
# Assay: Inhibition of c-Jun expressed in HEK293 cells assessed as induction of protein interaction in presence of camptothecin with Pin1 by EYFP based reporter gene assay
# Type: cell-based
row,SMILES,Activity
1,Clc1ccccc1C(c1ccccc1)(c1ccccc1)n1ccnc1 [CLOTRIMAZOLE],Active
2,O=C1C=C2C(=CCOC2O)O1 (centres undefined) [PATULIN],Active
3,C(=C\c1ccccc1)/CN1CCN(C(c2ccccc2)c2ccccc2)CC1,Active

# Test system: PC-3
# Assay: Antiproliferative activity against human PC3 cells at 2 uM after 120 hrs by MTT assay relative to DMSO
# Type: functional
row,SMILES,fold change (FC)
1,O=C1Cc2cc(CCN3CCN(c4nsc5ccccc45)CC3)c(Cl)cc2N1 [ZIPRASIDONE],1.017
2,Cc1nc2n(c(=O)c1CCN1CCC(c3noc4cc(F)ccc34)CC1)CCCC2 [RISPERIDONE],1.071
3,CC(C)(C)NCC(O)c1cc(Cl)c(N)c(Cl)c1 (centres undefined) [CLENBUTEROL],0.963
4,CC(C)NCC(O)c1ccc(O)c(O)c1 (centres undefined) [ISOPROTERENOL],0.955
5,CC(C)NCC(O)COc1cccc2ccccc12 (centres undefined) [PROPRANOLOL],0.986
6,CN1CCN(C2=Nc3cc(Cl)ccc3Nc3ccccc32)CC1 [CLOZAPINE],0.977
7,CC(C)(C)NCC(O)c1ccc(O)c(CO)c1 (centres undefined) [ALBUTEROL],0.926
8,Cc1cc2c(s1)Nc1ccccc1N=C2N1CCN(C)CC1 [OLANZAPINE],1.059
9,OCCOCCN1CCN(C2=Nc3ccccc3Sc3ccccc32)CC1 [QUETIAPINE],1.013
10,O=S(=O)(NCCNC/C=C/c1ccc(Br)cc1)c1cccc2cnccc12,1.028
11,CC1(C)CCC2=C(O1)c1ccccc1C(=O)C2=O [LAPACHONE],0.243

# Molecular target: Cyclin-dependent kinase 1 (Homo sapiens) (UniProt P06493)
# Assay: Effect on Cdc2 expressed in HEK293 cells assessed as effect on Cdc2:Cdc25A interaction complexes in presence of camptothecin by EYFP and/or YFP Venus fragment based reporter gene assay
# Type: cell-based
row,SMILES,Activity
1,Clc1ccccc1C(c1ccccc1)(c1ccccc1)n1ccnc1 [CLOTRIMAZOLE],Active
2,O=C1C=C2C(=CCOC2O)O1 (centres undefined) [PATULIN],Active
3,C(=C\c1ccccc1)/CN1CCN(C(c2ccccc2)c2ccccc2)CC1,Active

# Test system: PC-3
# Assay: Antiproliferative activity against human PC3 cells at 5 uM after 120 hrs by MTT assay relative to DMSO
# Type: functional
row,SMILES,fold change (FC)
1,CCCCCCCC/C=C\CCCCCCCC(=O)OC[C@@H](O)COP(=O)(O)O [LYSOPHOSPHATIDIC ACID],1.018
2,CC(/C=C/C(=O)NO)=C\[C@@H](C)C(=O)c1ccc(N(C)C)cc1 [TRICHOSTATIN],0.268
3,CC[C@H](CO)Nc1nc(NCc2ccccc2)c2ncn(C(C)C)c2n1 [SELICICLIB],0.797
4,NS(=O)(=O)Cc1noc2ccccc12 [ZONISAMIDE],1.035
5,COc1cc2ncc(-c3ccccc3)nc2cc1OC,0.94
6,NC1=NC(=O)/C(=C2/CCNC(=O)c3[nH]ccc32)N1,1.007
7,CC(C)C[C@H](NC(=O)c1ccc(NCc2c[nH]cn2)cc1-c1cccc2ccccc12)C(=O)O,0.966
8,CC1=C(/C=C/C(C)=C/C=C/C(C)=C/C(=O)O)C(C)(C)CCC1 [TRETINOIN],0.969
9,Cc1ccc(NC(=O)c2cccc(N(C)C)c2)cc1NC(=O)c1ccc(O)cc1,0.97

# Test system: PC-3
# Assay: Antiproliferative activity against human PC3 cells at 30 uM after 120 hrs by MTT assay relative to DMSO
# Type: functional
row,SMILES,fold change (FC)
1,CC(C)c1nc(N(C)S(C)(=O)=O)nc(-c2ccc(F)cc2)c1/C=C/[C@@H](O)C[C@@H](O)CC(=O)O [ROSUVASTATIN],0.491
2,CC(C)n1c(/C=C/C(O)CC(O)CC(=O)O)c(-c2ccc(F)cc2)c2ccccc21 (centres undefined) [FLUVASTATIN],0.255
3,CCC1(c2ccc(N)cc2)CCC(=O)NC1=O (centres undefined) [AMINOGLUTETHIMIDE],0.979
4,CC[C@H](C)C(=O)O[C@H]1C[C@H](O)C=C2C=C[C@H](C)[C@H](CC[C@@H](O)C[C@@H](O)CC(=O)O)[C@H]21 [PRAVASTATIN],1.098
5,CC(C)c1c(C(=O)Nc2ccccc2)c(-c2ccccc2)c(-c2ccc(F)cc2)n1CC[C@@H](O)C[C@@H](O)CC(=O)O [ATORVASTATIN],0.264
6,CCC(C)(C)C(=O)O[C@H]1C[C@@H](C)C=C2C=C[C@H](C)[C@H](CC[C@@H]3C[C@@H](O)CC(=O)O3)[C@H]21 [SIMVASTATIN],0.239
7,CC(=O)N1CCN(c2ccc(OCC3COC(Cn4ccnc4)(c4ccc(Cl)cc4Cl)O3)cc2)CC1 (centres undefined) [KETOCONAZOLE],1.066
8,CC[C@H](C)C(=O)O[C@H]1C[C@@H](C)C=C2C=C[C@H](C)[C@H](CC[C@@H]3C[C@@H](O)CC(=O)O3)[C@H]21 [LOVASTATIN],0.25
9,COCc1c(C(C)C)nc(C(C)C)c(/C=C/[C@@H](O)C[C@@H](O)CC(=O)O)c1-c1ccc(F)cc1 [CERIVASTATIN],0.254
10,CC[C@H](C)C(=O)O[C@H]1CCC=C2C=C[C@H](C)[C@H](CC[C@@H]3C[C@@H](O)CC(=O)O3)[C@H]21 [MEVASTATIN],0.243

# Test system: PC-3
# Assay: Antiproliferative activity against human PC3 cells at 500 nM after 120 hrs by MTT assay relative to DMSO
# Type: functional
row,SMILES,fold change (FC)
1,C[C@]12CC[C@@H]3c4ccc(O)cc4CC[C@H]3[C@@H]1CC[C@@H]2O [ESTRADIOL],0.997
2,C[C@@H]1C[C@H]2[C@@H]3CCC4=CC(=O)C=C[C@]4(C)[C@@]3(F)[C@@H](O)C[C@]2(C)[C@@]1(O)C(=O)CO [DEXAMETHASONE],1.127
3,CN(C)CCOc1ccc(/C(=C(/CCCl)c2ccccc2)c2ccccc2)cc1 [TOREMIFENE],1.001
4,CC/C(=C(\c1ccccc1)c1ccc(OCCN(C)C)cc1)c1ccccc1 [TAMOXIFEN],1.041
5,NS(=O)(=O)c1ccc(-n2nc(C(F)(F)F)cc2-c2ccccc2)cc1,1.023
6,COC[C@H]1OC(=O)c2coc3c2[C@@]1(C)C1=C(C3=O)[C@@H]2CCC(=O)[C@@]2(C)C[C@H]1OC(C)=O [WORTMANNIN],0.856
7,CC(O)(CS(=O)(=O)c1ccc(F)cc1)C(=O)Nc1ccc(C#N)c(C(F)(F)F)c1 (centres undefined) [BICALUTAMIDE],1.005
8,C[C@]12CC[C@@H]3c4ccc(O)cc4C[C@@H](CCCCCCCCC[S+]([O-])CCCC(F)(F)C(F)(F)F)[C@H]3[C@@H]1CC[C@@H]2O (some centres undefined) [FULVESTRANT],1.068
9,CC[C@@]1(O)C(=O)OCc2c1cc1n(c2=O)Cc2cc3ccccc3nc2-1 [CAMPTOTHECIN],0.258
10,O=C(c1ccc(OCCN2CCCCC2)cc1)c1c(-c2ccc(O)cc2)sc2cc(O)ccc12 [RALOXIFENE],1.06
